Broadly, the IC50 is the concentration needed to halve the response being measured.

*1 amine or outer side, *2 acyl side, *3 side chain or, on linkers, in order; H or OH if unused. Where a SMILES comes first, the peptide text is derived from it. Bridges are numbered along the chain shown (N, C = ends). [ ]: non-standard residue; d: D form. The star is where a group is joined. Phe(3-CF3) = N[C@@H](Cc1cccc(C(F)(F)F)c1)C(=O)O; Ala(morpholin-4-yl) = N[C@@H](CN1CCOCC1)C(=O)O; Phe(4-COOH) = N[C@@H](Cc1ccc(C(=O)O)cc1)C(=O)O; Bip = N[C@@H](Cc1ccc(-c2ccccc2)cc1)C(=O)O; γGlu = O=C(O)[C@H](CCC(=O)[*:2])N[*:1]; NH(CH2)12COOH = O=C(O)CCCCCCCCCCCCN*; Val(3-OH) = CC(C)(O)[C@H](N)C(=O)O; Cha = N[C@@H](CC1CCCCC1)C(=O)O; Cit = NC(=O)NCCC[C@H](N)C(=O)O; Carboxymethyl = O=C(O)C*; NMeA = CN[C@@H](C)C(=O)O; Dab = NCC[C@H](N)C(=O)O; AEEA = NCCOCCOCC(=O)O

For this experiment, the target named is T1, PD-1/PD-L1 interaction (PE-labeled human PD-L1-Ig binding to Jurkat cell line over-expressing human PD-1) (Homo sapiens, UniProt Q15116).
T1 construct: expressed in transfected cells; host or cells: Jurkat
T1 sequence (Q15116 25-288): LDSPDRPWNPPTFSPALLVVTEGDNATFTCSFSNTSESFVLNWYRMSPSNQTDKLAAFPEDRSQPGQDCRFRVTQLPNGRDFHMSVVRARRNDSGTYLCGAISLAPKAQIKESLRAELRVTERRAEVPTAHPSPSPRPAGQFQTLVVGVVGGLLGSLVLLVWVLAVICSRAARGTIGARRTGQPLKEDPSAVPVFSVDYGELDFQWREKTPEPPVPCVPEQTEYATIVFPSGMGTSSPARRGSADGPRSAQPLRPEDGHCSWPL
Description: Jurkat-PD-1 Cell Binding High-Content Screening Assay (CBA). The note with it: Jurkat-hPD-1 cells, PE-labeled PD-L1-Ig 20 nM final; read-out: Jurkat HPD1 PDL1 IC50. The method, boiled down:
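Jurkat-hPD-1 cells (8×10^3/well) in DMEM with 10% fetal calf serum were preincubated with compound for 2 h at 37 °C. PE-labeled PD-L1-Ig was then added at 20 nM final for 1 h. Cells were fixed in paraformaldehyde with Hoechst 33342, washed and imaged by high-content imaging.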
With `CC(C)C[C@H]1NC(=O)[C@H](C)N(C)C(=O)[C@H](CCC(N)=O)NC(=O)[C@H](Cc2ccc(-c3ccccc3)cc2)NC(=O)[C@H](Cc2ccc(C(=O)O)cc2)NC(=O)[C@H](Cc2cccc(C(F)(F)F)c2)NC(=O)[C@H](CC(=O)O)NC(=O)[C@H](Cc2ccc(OCC(=O)O)cc2)NC(=O)[C@H](CN2CCOCC2)NC(=O)CSC[C@@H](C(=O)N[C@@H](CCN)C(=O)NCCCCCCCCCCCCC(=O)O)NC(=O)[C@H](CO)NC(=O)[C@H](C(C)(C)O)NC(=O)[C@H](CC2CCCCC2)NC(=O)[C@H](CCN)NC1=O` [Example 1152] ({CH2CO}-[Ala(morpholin-4-yl)]Y(Carboxymethyl)D[Phe(3-CF3)][Phe(4-COOH)][Bip]Q[NMeA][dL][Dab][Cha][Val(3-OH)]SC[Dab]-{NH(CH2)12COOH}; thioether N-14), the IC50 is 11.8 nM. Under `CC(=O)NCCCC[C@@H]1NC(=O)[C@H](C(C)(C)O)NC(=O)[C@H](CC2CCCCC2)NC(=O)[C@H](CCN)NC(=O)[C@@H](CC(C)C)NC(=O)[C@H](C)N(C)C(=O)[C@H](CCC(N)=O)NC(=O)[C@H](Cc2ccc(-c3ccccc3)cc2)NC(=O)[C@H](Cc2ccc(C(=O)O)cc2)NC(=O)[C@H](Cc2cccc(C(F)(F)F)c2)NC(=O)[C@H](CC(=O)O)NC(=O)[C@H](Cc2ccc(OCC(=O)O)cc2)NC(=O)[C@H](CN2CCOCC2)NC(=O)CSC[C@@H](C(=O)N[C@@H](CCN)C(=O)NCCCCCCCCCCCCC(=O)O)NC1=O` [Example 1153] ({CH2CO}-[Ala(morpholin-4-yl)]Y(Carboxymethyl)D[Phe(3-CF3)][Phe(4-COOH)][Bip]Q[NMeA][dL][Dab][Cha][Val(3-OH)]K(Ac)C[Dab]-{NH(CH2)12COOH}; thioether N-14) stands 12.9 nM; under `CC(C)C[C@H]1NC(=O)[C@H](C)N(C)C(=O)[C@H](CCCNC(N)=O)NC(=O)[C@H](Cc2ccc(-c3ccccc3)cc2)NC(=O)[C@H](Cc2ccc(C(=O)O)cc2)NC(=O)[C@H](Cc2cccc(C(F)(F)F)c2)NC(=O)[C@H](CC(=O)O)NC(=O)[C@H](Cc2ccc(OCC(=O)O)cc2)NC(=O)[C@H](CN2CCOCC2)NC(=O)CSC[C@@H](C(=O)N[C@@H](CCN)C(=O)NCCCCCCCCCCCCC(=O)O)NC(=O)[C@H](CC(=O)O)NC(=O)[C@H](C(C)(C)O)NC(=O)[C@H](CC2CCCCC2)NC(=O)[C@H](CCN)NC1=O` [Example 1154] ({CH2CO}-[Ala(morpholin-4-yl)]Y(Carboxymethyl)D[Phe(3-CF3)][Phe(4-COOH)][Bip][Cit][NMeA][dL][Dab][Cha][Val(3-OH)]DC[Dab]-{NH(CH2)12COOH}; thioether N-14), 15.6 nM. Then `CC(C)C[C@H]1NC(=O)[C@H](C)N(C)C(=O)[C@H](CCCNC(N)=O)NC(=O)[C@H](Cc2ccc(-c3ccccc3)cc2)NC(=O)[C@H](Cc2ccc(C(=O)O)cc2)NC(=O)[C@H](Cc2cccc(C(F)(F)F)c2)NC(=O)[C@H](CC(=O)O)NC(=O)[C@H](Cc2ccc(OCC(=O)O)cc2)NC(=O)[C@H](CN2CCOCC2)NC(=O)CSC[C@@H](C(=O)N[C@@H](CCN)C(=O)NCCCCCCCCCCCCC(=O)O)NC(=O)[C@H](CCC(=O)O)NC(=O)[C@H](C(C)C)NC(=O)[C@H](CC2CCCCC2)NC(=O)[C@H](CCN)NC1=O` [Example 1155] ({CH2CO}-[Ala(morpholin-4-yl)]Y(Carboxymethyl)D[Phe(3-CF3)][Phe(4-COOH)][Bip][Cit][NMeA][dL][Dab][Cha]VEC[Dab]-{NH(CH2)12COOH}; thioether N-14), with 8.6 nM; and `CC(C)C[C@H]1NC(=O)[C@H](C)N(C)C(=O)[C@H](CCCNC(N)=O)NC(=O)[C@H](Cc2ccc(-c3ccccc3)cc2)NC(=O)[C@H](Cc2ccc(C(=O)O)cc2)NC(=O)[C@H](Cc2cccc(C(F)(F)F)c2)NC(=O)[C@H](CC(=O)O)NC(=O)[C@H](Cc2ccc(OCC(=O)O)cc2)NC(=O)[C@H](CN2CCOCC2)NC(=O)CSC[C@@H](C(=O)N[C@@H](CCN)C(=O)NCCCCCCCCCCCCC(=O)O)NC(=O)[C@H](CO)NC(=O)[C@H](C(C)(C)O)NC(=O)[C@H](CC2CCCCC2)NC(=O)[C@H](CCN)NC1=O` [Example 1156] ({CH2CO}-[Ala(morpholin-4-yl)]Y(Carboxymethyl)D[Phe(3-CF3)][Phe(4-COOH)][Bip][Cit][NMeA][dL][Dab][Cha][Val(3-OH)]SC[Dab]-{NH(CH2)12COOH}; thioether N-14), with 15.1 nM; and `CC(=O)NCCCC[C@@H]1NC(=O)[C@H](C(C)(C)O)NC(=O)[C@H](CC2CCCCC2)NC(=O)[C@H](CCN)NC(=O)[C@@H](CC(C)C)NC(=O)[C@H](C)N(C)C(=O)[C@H](CCCNC(N)=O)NC(=O)[C@H](Cc2ccc(-c3ccccc3)cc2)NC(=O)[C@H](Cc2ccc(C(=O)O)cc2)NC(=O)[C@H](Cc2cccc(C(F)(F)F)c2)NC(=O)[C@H](CC(=O)O)NC(=O)[C@H](Cc2ccc(OCC(=O)O)cc2)NC(=O)[C@H](CN2CCOCC2)NC(=O)CSC[C@@H](C(=O)N[C@@H](CCN)C(=O)NCCCCCCCCCCCCC(=O)O)NC1=O` [Example 1157] ({CH2CO}-[Ala(morpholin-4-yl)]Y(Carboxymethyl)D[Phe(3-CF3)][Phe(4-COOH)][Bip][Cit][NMeA][dL][Dab][Cha][Val(3-OH)]K(Ac)C[Dab]-{NH(CH2)12COOH}; thioether N-14), with 4.6 nM. Then `CC(C)C[C@H]1NC(=O)[C@H](C)N(C)C(=O)[C@H](CCCNC(N)=O)NC(=O)[C@H](Cc2ccc(-c3ccccc3)cc2)NC(=O)[C@H](Cc2ccc(C(=O)O)cc2)NC(=O)[C@H](Cc2cccc(C(F)(F)F)c2)NC(=O)[C@H](CC(=O)O)NC(=O)[C@H](Cc2ccc(OCC(=O)O)cc2)NC(=O)[C@H](Cc2ccc(C(=O)O)cc2)NC(=O)CSC[C@@H](C(=O)N[C@@H](CCN)C(=O)NCCOCCOCC(=O)N[C@@H](CCC(=O)NCCOCCOCC(=O)NCCCCCCCCCCCCC(=O)O)C(=O)O)NC(=O)[C@H](CCC(=O)O)NC(=O)[C@H](C(C)C)NC(=O)[C@H](CC2CCCCC2)NC(=O)[C@H](CCN)NC1=O` [Example 1158] ({CH2CO}-[Phe(4-COOH)]Y(Carboxymethyl)D[Phe(3-CF3)][Phe(4-COOH)][Bip][Cit][NMeA][dL][Dab][Cha]VEC[Dab][AEEA][γGlu][AEEA]-{NH(CH2)12COOH}; thioether N-14), with 50.3 nM. Take `CC(=O)NCCCC[C@@H]1NC(=O)[C@H](C(C)(C)O)NC(=O)[C@H](CC2CCCCC2)NC(=O)[C@H](CCN)NC(=O)[C@@H](CC(C)C)NC(=O)[C@H](C)N(C)C(=O)[C@H](CCCNC(N)=O)NC(=O)[C@H](Cc2ccc(-c3ccccc3)cc2)NC(=O)[C@H](Cc2ccc(C(=O)O)cc2)NC(=O)[C@H](Cc2cccc(C(F)(F)F)c2)NC(=O)[C@H](CC(=O)O)NC(=O)[C@H](Cc2ccc(OCC(=O)O)cc2)NC(=O)[C@H](Cc2ccc(C(=O)O)cc2)NC(=O)CSC[C@@H](C(=O)N[C@@H](CCN)C(=O)NCCOCCOCC(=O)N[C@@H](CCC(=O)NCCOCCOCC(=O)NCCCCCCCCCCCCC(=O)O)C(=O)O)NC1=O` [Example 1159] ({CH2CO}-[Phe(4-COOH)]Y(Carboxymethyl)D[Phe(3-CF3)][Phe(4-COOH)][Bip][Cit][NMeA][dL][Dab][Cha][Val(3-OH)]K(Ac)C[Dab][AEEA][γGlu][AEEA]-{NH(CH2)12COOH}; thioether N-14): the IC50 stood at 46.4 nM. Then `CC(C)C[C@H]1NC(=O)[C@H](C)N(C)C(=O)[C@H](Cc2ccc(C(=O)O)cc2)NC(=O)[C@H](Cc2ccc(-c3ccccc3)cc2)NC(=O)[C@H](Cc2ccc(C(=O)O)cc2)NC(=O)[C@H](Cc2cccc(C(F)(F)F)c2)NC(=O)[C@H](CC(=O)O)NC(=O)[C@H](Cc2ccc(OCC(=O)O)cc2)NC(=O)[C@H](Cc2ccc(C(=O)O)cc2)NC(=O)CSC[C@@H](C(=O)N[C@@H](CCN)C(=O)NCCOCCOCC(=O)N[C@@H](CCC(=O)NCCOCCOCC(=O)NCCCCCCCCCCCCC(=O)O)C(=O)O)NC(=O)[C@H](CCC(=O)O)NC(=O)[C@H](C(C)C)NC(=O)[C@H](CC2CCCCC2)NC(=O)[C@H](CCN)NC1=O` [Example 1160] ({CH2CO}-[Phe(4-COOH)]Y(Carboxymethyl)D[Phe(3-CF3)][Phe(4-COOH)][Bip][Phe(4-COOH)][NMeA][dL][Dab][Cha]VEC[Dab][AEEA][γGlu][AEEA]-{NH(CH2)12COOH}; thioether N-14), with 101 nM; and `CC(C)C[C@H]1NC(=O)[C@H](C)N(C)C(=O)[C@H](Cc2ccc(C(=O)O)cc2)NC(=O)[C@H](Cc2ccc(-c3ccccc3)cc2)NC(=O)[C@H](Cc2ccc(C(=O)O)cc2)NC(=O)[C@H](Cc2cccc(C(F)(F)F)c2)NC(=O)[C@H](CC(=O)O)NC(=O)[C@H](Cc2ccc(OCC(=O)O)cc2)NC(=O)[C@H](Cc2ccc(C(=O)O)cc2)NC(=O)CSC[C@@H](C(=O)N[C@@H](CCN)C(=O)NCCOCCOCC(=O)N[C@@H](CCC(=O)NCCOCCOCC(=O)NCCCCCCCCCCCCC(=O)O)C(=O)O)NC(=O)[C@H](CO)NC(=O)[C@H](C(C)(C)O)NC(=O)[C@H](CC2CCCCC2)NC(=O)[C@H](CCN)NC1=O` [Example 1161] ({CH2CO}-[Phe(4-COOH)]Y(Carboxymethyl)D[Phe(3-CF3)][Phe(4-COOH)][Bip][Phe(4-COOH)][NMeA][dL][Dab][Cha][Val(3-OH)]SC[Dab][AEEA][γGlu][AEEA]-{NH(CH2)12COOH}; thioether N-14), with 81.4 nM. Under `COC[C@@H]1NC(=O)CSC[C@@H](C(=O)N[C@@H](CCN)C(=O)NCCOCCOCC(=O)N[C@@H](CCC(=O)NCCOCCOCC(=O)NCCCCCCCCCCCCC(=O)O)C(=O)O)NC(=O)[C@H](CCC(=O)O)NC(=O)[C@H](C(C)C)NC(=O)[C@H](CC2CCCCC2)NC(=O)[C@H](CCN)NC(=O)[C@@H](CC(C)C)NC(=O)[C@H](C)N(C)C(=O)[C@H](CCC(N)=O)NC(=O)[C@H](Cc2ccc(-c3ccccc3)cc2)NC(=O)[C@H](Cc2ccc(C(=O)O)cc2)NC(=O)[C@H](Cc2cccc(C(F)(F)F)c2)NC(=O)[C@H](CC(=O)O)NC(=O)[C@H](Cc2ccc(OCC(=O)O)cc2)NC1=O` [Example 1163] ({CH2CO}-S(Me)Y(Carboxymethyl)D[Phe(3-CF3)][Phe(4-COOH)][Bip]Q[NMeA][dL][Dab][Cha]VEC[Dab][AEEA][γGlu][AEEA]-{NH(CH2)12COOH}; thioether N-14) stands 15.2 nM.

The values are drawn from US20260070945A1, “MACROCYCLIC IMMUNOMODULATORS” (Bristol-Myers Squibb Company, priority 2022, published 2026).
